The structures appear in SMILES notation. pIC50: −log10 of the molar value. Read-outs that look alike come from different tables or passages of the source.

For assay [1], the target named is T1, farnesyl protein transferase (FPT) (Rattus norvegicus, UniProt Q02293+Q04631).
T1 construct: were partially purified from rat brain by ammonium sulfate fractionation; from tissue; host or cells: rat brain
In words: In vitro enzyme assay: inhibition of farnesyl protein transferase (FPT), Ras-CVLS farnesylation. It is filed as biochemical. The source says: (§1) 1. In vitro enzyme assays: Inhibition of farnesyl protein transferase and geranylgeranyl protein transferase.
Both farnesyl protein transferase (FPT) and geranylgeranyl protein transferase (GGPT) I were partially purified from rat brain by ammonium sulfate fractionation followed by Q-Sepharose (Pharmacia, Inc.) anion exchange chromatography essentially as described by Yokoyama et al (Yokoyama, K., et al., (1991), A protein geranylgeranyltransferase from bovine brain: Implications for protein prenylation specificity, Proc. Natl. Acad. Sci USA 88: 5302-5306, the disclosure of which is incorporated herein by reference thereto). Human farnesyl protein transferase was also expressed in E. coli, using cDNA clones encoding both the a and b subunits. The methods used were similar to those published (Omer, C. et al., (1993), Characterization of recombinant human farnesyl protein transferase: Cloning, expression, farnesyl diphosphate binding, and functional homology with yeast prenyl-protein transferases, Biochemistry 32:5167-5176). Human farnesyl protein transferase was partially-purified from the soluble protein fraction of E. coli as described above. the tricyclic farnesyl protein transferase inhibitors disclosed herein inhibited both human and rat enzyme with similar potencies. Two forms of val^12 -Ha-Ras protein were prepared as substrates for these enzymes, differing in their carboxy terminal sequence. One form terminated in cysteine-valine-leucine-serine (Ras-CVLS) the other in cystein-valine-leucine-leucine (Ras-CVLL). Ras-CVLS is a substrate for the farnesyl protein transferase while Ras-CVLL is a substrate for geranylgeranyl protein transferase I. The cDNAs encoding these proteins were constructed so that the proteins contain an amino-terminal extension of 6 histidine residues. Both proteins were expressed in Escherichia coli and purified using metal chelate affinity chromatography. The radiolabelled isoprenyl pyrophosphate substrates, [^3 H]farnesyl pyrophosphate and [^3 H]geranylgeranyl pyrophosphate, were purchased from DuPont/New England Nuclear.
Several methods for measuring farnesyl protein transferase activity have been described (Reiss et al 1990, Cell 62: 81; Schaber et al 1990, J. Biol. Chem. 265: 14701; Manne et al 1990, PNAS 87: 7541; and Barbacid & Manne 1993, U.S. Pat. No. 5,185,248). The activity was assayed by measuring the transfer of [^3 H]farnesyl from [^3 H]farnesyl pyrophosphate to Ras-CVLS using conditions similar to those described by Reiss et al. 1990 (Cell 62: 81) The reaction mixture contained 40 mM Hepes, pH 7.5; 20 mM magnesium chloride; 5 mM dithiothreitol; 0.25 μM [^3 H]farnesyl pyrophosphate; […] Q-Sepharose-purified farnesyl protein transferase; the indicated concentration of tricyclic compound or dimethylsulfoxide (DMSO) vehicle control (5% DMSO final); and […] Ras-CVLS in a total volume of […]. The reaction was allowed to proceed for 30 minutes at room temperature and then stopped with 0.5 ml of 4% sodium dodecyl sulfate (SDS) followed by 0.5 ml of cold 30% trichloracetic acid (TCA). Samples were allowed to sit on ice for 45 minutes and precipitated Ras protein was then collected on GF/C filter paper mats using a Brandel cell harvester. Filter mats were washed once with 6% TCA, 2% SDS and radioactivity was measured in a Wallac 1204 Betaplate BS liquid scintillation counter. Percent inhibition was calculated relative to the DMSO vehicle control.

Assay [2] relates to T24-BAG4 human bladder carcinoma cells. In words: Cell Mat Assay: inhibition of tumor cell growth. Conditions: 336 h, tIC50, 14 d colony formation. It is filed as cell-based. The method, then: (§2) Normal human HEPM fibroblasts were planted in 3.5 cm dishes at a density of 5×10^4 cells/dish in 2 ml growth medium, and incubated for 3-5 d to achieve confluence. Medium was aspirated from each dish and the indicator tumor cells, T24-BAG4 human bladder carcinoma cells expressing an activated H-ras gene, were planted on top of the fibroblast monolayer at a density of 2×10^3 cells/dish in 2 ml growth medium, and allowed to attach overnight. Compound-induced colony inhibition was assayed by addition of serial dilutions of compound directly to the growth medium 24 h after tumor cell planting, and incubating cells for an additional 14 d to allow colony formation. Assays were terminated by rinsing monolayers twice with phosphate-buffered saline (PBS), fixing the monolayers with a 1% glutaraldehyde solution in PBS, then visualizing tumor cells by staining with X-Gal (Price, J., et al., Lineage analysis in the vertebrate nervous system by retrovirus-mediated gene transfer, Proc. Natl. Acad. Sci. 84, 156-160(1987)). In the colony inhibition assay, compounds were evaluated on the basis of two IC50 values: the concentration of drug required to prevent the increase in tumor cell number by 50% (tIC50) and the concentration of drug required to reduce the density of cells comprising the cell mat by 50% (mIC50). Both IC50 values were obtained by determining the density of tumor cells and mat cells by visual inspection and enumeration of cells per colony and the number of colonies under the microscope. The therapeutic index of the compound was quantitatively expressed as the ratio of mIC50 /tIC50, with values greater than one indicative of tumor target specificity.

The target in assay [3] is T2, geranylgeranyl protein transferase (GGPT) I (Rattus norvegicus, UniProt P53610+Q04631).
T2 construct: were partially purified from rat brain by ammonium sulfate fractionation; from tissue; host or cells: rat brain
In words: In vitro enzyme assay: inhibition of geranylgeranyl protein transferase (GGPT) I, Ras-CVLL as acceptor. It is filed as biochemical.
Text: as §1
Both farnesyl protein transferase (FPT) and geranylgeranyl protein transferase (GGPT) I were partially purified from rat brain by ammonium sulfate fractionation followed by Q-Sepharose (Pharmacia, Inc.) anion exchange chromatography essentially as described by Yokoyama et al (Yokoyama, K., et al., (1991), A protein geranylgeranyltransferase from bovine brain: Implications for protein prenylation specificity, Proc. Natl. Acad. Sci USA 88: 5302-5306, the disclosure of which is incorporated herein by reference thereto). Human farnesyl protein transferase was also expressed in E. coli, using cDNA clones encoding both the a and b subunits. The methods used were similar to those published (Omer, C. et al., (1993), Characterization of recombinant human farnesyl protein transferase: Cloning, expression, farnesyl diphosphate binding, and functional homology with yeast prenyl-protein transferases, Biochemistry 32:5167-5176). Human farnesyl protein transferase was partially-purified from the soluble protein fraction of E. coli as described above. the tricyclic farnesyl protein transferase inhibitors disclosed herein inhibited both human and rat enzyme with similar potencies. […]

In assay [4] the test system is Normal human HEPM fibroblasts. The assay can be described thus: Cell Mat Assay: inhibition of normal cell growth (cell mat). It is filed as cell-based. Conditions: Fibroblast, mIC50, normal cell monolayer. How it is done:
as §2

Assay [5] deals with Ras-CVLS processing in COS monkey kidney cells. The assay can be described thus: Cell-Based Assay: Ras-CVLS processing in transfected COS monkey kidney cells. Conditions: Primates, read-out: COS IC50 (inhibition of Ras-CVLS processing). The source says:
2. Cell-Based Assay: Transient expression of val^12 -Ha-Ras-CVLS and val^12 -Ha-Ras-CVLL in COS monkey kidney cells: Effect of farnesyl protein transferase inhibitors on Ras processing and on disordered cell growth induced by transforming Ras.
COS monkey kidney cells were transfected by electroporation with the plasmid pSV-SPORT (Gibco/BRL) containing a cDNA insert encoding either Ras-CVLS or Ras-CVLL, leading to transient overexpression of a Ras substrate for either farnesyl protein transferase or geranylgeranyl protein transferase I, respectively (see above). […]
Membranes were blocked by incubation overnight at 4° C. in PBS containing 2.5% dried milk and 0.5% Tween-20 and then incubated with a Ras-specific monoclonal antibody, Y13-259 (Furth, M. E., et al., (1982), Monoclonal antibodies to the p21 products of the transforming gene of Harvey murine sarcome virus and of the cellular ras gene family, J. Virol. 43: 294-304), in PBS containing 1% fetal calf serum for one hour at room temperature. […] The presence of processed and unprocessed Ras-CVLS or Ras-CVLL was detected using a colorimetric peroxidase reagent (4-chloro-1-naphthol) as described by the manufacturer (Bio-Rad).

Where [6] appears, read: Table 3, comparison of FPT and GGPT inhibition, read-out: ENZYME INHIBITION FPT IC50.

Consider `O=S(=O)(c1cccs1)N1CCC/C(=C2\c3ccc(Cl)cc3CCc3cccnc32)C1` [Compound E-1G], for which the pIC50 in assay [1] (Table 2, read-out: FPT IC50) is over 6.36; in assay [1] (setting [6]), 6.33; in assay [2], 4.90; in assay [3] (Table 3), over 4.89; in assay [4], under 4.60.

With `O=S(=O)(c1ccccc1)N1CCC/C(=C2\c3ccc(Cl)cc3CCc3cccnc32)C1` [Compound E-2E], the negative-log IC50 (pIC50) was 6.15 in assay [1] (Table 2, read-out: FPT IC50); 6.15 in assay [1] (setting [6]); over 5.51 in assay [2]; 5.13 in assay [3] (Table 3, unit printed in the cell); under 4.30 in assay [4]; 5.60 in assay [5].

In the case of `O=S(=O)(c1ccccc1)N1CC/C(=C2\c3ccc(Cl)cc3CCc3cccnc32)C1` [Compound E-2], the pIC50 in assay [1] (Table 2, read-out: FPT IC50) was 6.23; in assay [5] it was under 5.30.

A word on the pIC50: it is −log10 of the IC50, conventionally taken in molar units.

Values taken from patent publication US5684013A, “Tricyclic compounds useful for inhibition of g-protein function and for treatment of proliferative diseases” (Schering Corporation, priority 1995, dated 1997).
